Test results reported in ChEMBL document CHEMBL3351528, “Targeting dopamine D3 and serotonin 5-HT1A and 5-HT2A receptors for developing effective antipsychotics: synthesis, biological characterization, and behavioral studies” (J Med Chem, 2014).

Experiments:
Mus musculus [1] = experiment: Toxicity in mouse assessed as induction of memory impairment by measuring […] to enter dark compartment at 60 mg/kg, po administered 30 mins before training by passive avoidance test; format: organism-based; set-up: dose 60 mg/kg, route oral; settings: in vivo, 0.5 h
[2] = target: T1, 5-hydroxytryptamine receptor 2C (Homo sapiens, UniProt P28335)
T1 sequence (P28335 whole entry): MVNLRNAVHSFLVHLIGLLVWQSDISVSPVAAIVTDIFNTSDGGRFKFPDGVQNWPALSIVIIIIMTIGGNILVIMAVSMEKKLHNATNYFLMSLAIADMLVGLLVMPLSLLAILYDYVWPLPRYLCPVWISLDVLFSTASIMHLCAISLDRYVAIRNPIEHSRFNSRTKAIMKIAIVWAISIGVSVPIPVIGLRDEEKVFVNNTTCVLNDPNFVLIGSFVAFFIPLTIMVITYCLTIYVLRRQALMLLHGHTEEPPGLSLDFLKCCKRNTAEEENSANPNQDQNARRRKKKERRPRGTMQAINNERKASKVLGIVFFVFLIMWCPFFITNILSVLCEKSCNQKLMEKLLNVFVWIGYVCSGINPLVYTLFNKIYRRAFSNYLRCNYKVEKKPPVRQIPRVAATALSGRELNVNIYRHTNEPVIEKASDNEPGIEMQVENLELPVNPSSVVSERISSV
Description: Binding affinity to 5HT2C receptor (unknown origin)

[3] = target: 5-hydroxytryptamine receptor 2A (Rattus norvegicus, UniProt P14842); experiment: Antagonist activity at 5HT2A receptor in rat aortic rings assessed as reduction in 5-HT-induced contraction
Mus musculus [4] = experiment: Effect on spontaneous locomotor activity in mouse at 30 mg/kg, ip; format: ADME, organism-based; set-up: dose 30 mg/kg, route intraperitoneal; settings: in vivo
[5] = target: 5-hydroxytryptamine receptor 2A (Homo sapiens, UniProt P28223)
Description: Binding affinity to 5HT2A receptor (unknown origin)

[6] = target: Voltage-gated inwardly rectifying potassium channel KCNH2 (Homo sapiens, UniProt Q12809); experiment: Inhibition of human ERG by whole cell based electrophysiology assay
[7] = target: T2, 5-hydroxytryptamine receptor 1A (Homo sapiens, UniProt P08908)
T2 sequence (P08908 whole entry): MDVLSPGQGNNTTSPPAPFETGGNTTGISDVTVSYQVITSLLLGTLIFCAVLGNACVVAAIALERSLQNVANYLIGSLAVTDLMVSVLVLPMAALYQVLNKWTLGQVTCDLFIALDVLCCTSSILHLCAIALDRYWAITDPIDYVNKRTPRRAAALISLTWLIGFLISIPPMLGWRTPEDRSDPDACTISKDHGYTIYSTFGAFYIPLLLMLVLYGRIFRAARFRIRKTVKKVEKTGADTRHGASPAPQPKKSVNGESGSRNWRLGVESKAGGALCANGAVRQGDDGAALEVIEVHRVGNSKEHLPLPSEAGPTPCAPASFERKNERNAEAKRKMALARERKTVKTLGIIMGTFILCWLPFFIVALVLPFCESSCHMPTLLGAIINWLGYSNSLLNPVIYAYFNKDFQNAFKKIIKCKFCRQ
Description: Binding affinity to 5HT1A receptor (unknown origin)

Histamine H1 receptor = Histamine H1 receptor (Homo sapiens, UniProt P35367); experiment: Binding affinity to human histamine H1 receptor
Mus musculus [8] = experiment: Effect on spontaneous exploratory locomotor activity in orally dosed NMRI mouse measured for 30 mins with activity counts each 5 mins; format: ADME, organism-based; settings: in vivo, po, 0.5 h
Mus musculus [9] = experiment: Antipsychotic-like activity in orally dosed NMRI mouse assessed as reduction in MK801-induced locomotor activity dosed 15 to 30 mins before administration of MK801 measured for 60 mins; format: functional; settings: po, read-out: MED
Mus musculus [10] = experiment: Antipsychotic-like activity in orally dosed NMRI mouse assessed as reduction in methamphetamine-induced locomotor activity dosed 15 to 30 mins before administration of methamphetamine measured for 60 mins; format: functional; settings: po, read-out: MED
[11] = target: T2, 5-hydroxytryptamine receptor 1A; experiment: Agonist activity at human 5HT1A receptor (unknown origin) expressed in CHO cells by [35S]GTPgammaS binding assay; format: functional, cell-based
D(3) dopamine receptor = D(3) dopamine receptor (Homo sapiens, UniProt P35462); experiment: Antagonist activity at human dopamine D3 receptor expressed in CHO-K1 cells assessed as reduction in dopamine-induced response by [35S]GTPgammaS binding assay; format: functional, cell-based
Mus musculus [12] = experiment: Reduction in startle response in mouse at 30 mg/kg, po dosed 30 mins before testing; format: ADME, organism-based; set-up: dose 30 mg/kg, route oral; settings: in vivo, 0.5 h

Chain of Histamine H1 receptor (P35367 whole entry): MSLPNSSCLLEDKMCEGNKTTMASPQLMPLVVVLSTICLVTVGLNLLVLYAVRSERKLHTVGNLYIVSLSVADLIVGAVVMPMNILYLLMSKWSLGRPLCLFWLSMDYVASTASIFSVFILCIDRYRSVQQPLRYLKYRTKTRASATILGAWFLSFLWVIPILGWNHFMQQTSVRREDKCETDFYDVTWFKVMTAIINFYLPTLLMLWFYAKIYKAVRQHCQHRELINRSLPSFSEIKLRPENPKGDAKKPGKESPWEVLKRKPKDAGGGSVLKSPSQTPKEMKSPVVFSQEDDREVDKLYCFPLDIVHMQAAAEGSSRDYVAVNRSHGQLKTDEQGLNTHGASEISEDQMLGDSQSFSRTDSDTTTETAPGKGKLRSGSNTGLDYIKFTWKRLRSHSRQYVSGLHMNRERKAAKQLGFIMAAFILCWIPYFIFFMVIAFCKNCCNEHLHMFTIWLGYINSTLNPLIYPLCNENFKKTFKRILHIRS
Chain of 5-hydroxytryptamine receptor 2A (Homo sapiens, UniProt P28223) (P28223 whole entry): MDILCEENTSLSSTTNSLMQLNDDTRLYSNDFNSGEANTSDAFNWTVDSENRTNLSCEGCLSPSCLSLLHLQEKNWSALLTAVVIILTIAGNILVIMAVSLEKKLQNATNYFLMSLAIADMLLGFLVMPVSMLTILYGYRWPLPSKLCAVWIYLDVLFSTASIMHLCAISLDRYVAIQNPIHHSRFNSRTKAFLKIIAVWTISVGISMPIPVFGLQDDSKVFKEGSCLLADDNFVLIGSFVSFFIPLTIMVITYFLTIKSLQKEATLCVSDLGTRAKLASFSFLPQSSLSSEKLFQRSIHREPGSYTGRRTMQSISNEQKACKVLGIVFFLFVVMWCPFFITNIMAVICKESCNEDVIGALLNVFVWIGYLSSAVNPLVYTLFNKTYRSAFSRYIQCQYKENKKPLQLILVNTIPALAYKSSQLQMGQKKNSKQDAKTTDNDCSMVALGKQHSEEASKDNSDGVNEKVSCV
Chain of D(3) dopamine receptor (P35462 whole entry): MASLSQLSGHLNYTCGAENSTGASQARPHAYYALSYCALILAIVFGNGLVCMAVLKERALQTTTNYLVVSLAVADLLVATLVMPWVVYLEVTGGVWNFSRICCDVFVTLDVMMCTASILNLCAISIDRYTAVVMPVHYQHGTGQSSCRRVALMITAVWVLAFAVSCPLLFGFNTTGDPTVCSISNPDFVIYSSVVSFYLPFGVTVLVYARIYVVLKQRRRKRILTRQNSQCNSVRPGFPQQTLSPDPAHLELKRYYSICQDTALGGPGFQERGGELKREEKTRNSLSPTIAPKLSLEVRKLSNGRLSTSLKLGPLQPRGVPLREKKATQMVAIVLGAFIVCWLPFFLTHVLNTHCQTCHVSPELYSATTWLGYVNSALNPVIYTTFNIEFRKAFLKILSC
Chain of Voltage-gated inwardly rectifying potassium channel KCNH2 (Q12809 whole entry): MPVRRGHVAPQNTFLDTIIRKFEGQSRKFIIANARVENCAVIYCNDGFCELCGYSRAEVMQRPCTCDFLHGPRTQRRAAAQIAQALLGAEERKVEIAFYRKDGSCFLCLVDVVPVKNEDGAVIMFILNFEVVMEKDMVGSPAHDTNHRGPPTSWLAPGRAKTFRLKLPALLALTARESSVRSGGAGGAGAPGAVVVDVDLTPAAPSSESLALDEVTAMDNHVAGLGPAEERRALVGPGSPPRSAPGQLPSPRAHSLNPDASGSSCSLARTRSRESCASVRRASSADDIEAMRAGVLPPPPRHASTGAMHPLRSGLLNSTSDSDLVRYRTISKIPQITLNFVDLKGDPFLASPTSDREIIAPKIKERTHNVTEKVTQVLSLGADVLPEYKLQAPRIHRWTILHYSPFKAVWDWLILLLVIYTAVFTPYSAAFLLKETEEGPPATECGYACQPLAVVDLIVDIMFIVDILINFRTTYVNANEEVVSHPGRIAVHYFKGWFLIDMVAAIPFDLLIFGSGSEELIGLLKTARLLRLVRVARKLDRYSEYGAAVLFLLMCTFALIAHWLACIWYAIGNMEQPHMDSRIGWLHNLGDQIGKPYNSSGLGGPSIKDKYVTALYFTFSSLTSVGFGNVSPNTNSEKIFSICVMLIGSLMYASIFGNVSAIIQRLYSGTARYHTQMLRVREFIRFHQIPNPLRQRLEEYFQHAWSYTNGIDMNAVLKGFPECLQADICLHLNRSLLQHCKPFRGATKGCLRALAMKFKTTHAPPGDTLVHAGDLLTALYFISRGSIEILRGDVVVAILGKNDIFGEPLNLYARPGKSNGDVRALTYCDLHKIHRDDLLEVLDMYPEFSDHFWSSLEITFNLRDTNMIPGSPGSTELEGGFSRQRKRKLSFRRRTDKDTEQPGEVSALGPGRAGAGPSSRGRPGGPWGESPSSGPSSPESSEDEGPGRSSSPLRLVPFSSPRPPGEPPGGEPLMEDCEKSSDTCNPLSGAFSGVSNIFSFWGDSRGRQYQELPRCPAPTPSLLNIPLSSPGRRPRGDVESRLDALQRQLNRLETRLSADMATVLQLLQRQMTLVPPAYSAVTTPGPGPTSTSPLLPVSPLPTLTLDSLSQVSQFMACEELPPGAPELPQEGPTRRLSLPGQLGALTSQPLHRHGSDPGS
Chain of 5-hydroxytryptamine receptor 2A (Rattus norvegicus, UniProt P14842) (P14842 whole entry): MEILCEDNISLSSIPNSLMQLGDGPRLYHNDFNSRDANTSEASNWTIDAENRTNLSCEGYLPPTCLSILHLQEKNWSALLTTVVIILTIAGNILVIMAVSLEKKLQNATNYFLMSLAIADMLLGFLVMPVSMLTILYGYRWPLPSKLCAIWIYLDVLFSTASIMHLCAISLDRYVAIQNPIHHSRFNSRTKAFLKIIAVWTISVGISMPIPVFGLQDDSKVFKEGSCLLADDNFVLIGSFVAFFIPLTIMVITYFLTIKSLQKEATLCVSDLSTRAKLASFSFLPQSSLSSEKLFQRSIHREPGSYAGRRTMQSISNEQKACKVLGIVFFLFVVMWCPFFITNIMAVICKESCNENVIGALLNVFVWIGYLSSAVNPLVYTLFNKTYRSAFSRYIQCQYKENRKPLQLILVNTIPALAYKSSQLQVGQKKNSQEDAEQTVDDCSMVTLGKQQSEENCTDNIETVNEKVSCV

## O=C(NCCCCN1CCN(c2ccccc2)CC1)c1ccc2ncccc2c1
Mus musculus [1]
  Activity: Toxic
[2]
  Ki: > 1000 nM
[3]
  IC50: 2600 nM
Mus musculus [4]
  Activity: Toxic
[5]
  Ki: 66 nM
[6]
  IC50: 10 µM
[7]
  Ki: 99 nM
Histamine H1 receptor
  Ki: 110 nM
Mus musculus [8]
  MED: <= 3 mg kg-1
Mus musculus [9]
  minimal effective dose: 10 mg/kg
Mus musculus [10]
  minimal effective dose: > 30 mg/kg
[11]
  EC50: 1800 nM
D(3) dopamine receptor
  IC50: 258 nM
Mus musculus [12]
  Activity: Toxic
